# Assay results as given in patent publication US7939661B2, “Pyridine, quinoline and pyrimidine derivatives” (Hoffman-La Roche Inc., priority 2006, dated 2011).
# Target: T1, human subtype 5 somatostatin receptor (Homo sapiens, UniProt P35346)
# T1 construct: host or cells: CHO cells, stably transfected; membranes prepared from them
# Test: radioligand replacement (binding) assay, membranes of CHO cells expressing human SSTR5, 125I-labeled 11-Tyr somatostatin-14 tracer
# Conditions: human SSTR5, CHO cell membranes, 0.05 nM 125I-labeled 11-Tyr somatostatin-14, 1 h at rt; Ki from IC50 by Cheng-Prussoff equation
# Protocol: A CHO cell line stably transfected with a plasmid encoding the human subtype 5 somatostatin receptor (GenBank accession number D16827) was obtained from Euroscreen. Cells were cultured and used for binding and functional assays.
# Membranes of these cells were prepared by sonication in the presence of protease inhibitors and subsequent fractionating centrifugation. The protein concentration in the membrane preparation was determined using a commercial kit (BCA kit, Pierce, USA). Membranes were stored at −80° C. until use. After thawing membranes were diluted in assay buffer (50 mM Tris-HCl at pH 7.4, 5 mM MgCl2 and 0.20% BSA) and subjected to Dounce homogenization.
# For binding studies, 0.1 mL membrane suspension, corresponding to approximately 6×10^−15 mol receptor, was incubated for 1 h at rt with 0.05 nM ^125I-labeled tracer (11-Tyr somatostatin-14, Perkin-Elmer) and either test compounds in varying concentrations or, for the determination of non-specific binding, 0.001 mM non-labeled somatostatin-14. The incubation was stopped by filtration through GF/B glassfiber filters and washing with ice-cold wash buffer (50 mM Tris-HCl at pH 7.4). The bound radioactivity was measured after application of a scintillation cocktail (Microscint 40) and expressed as disintegrations per minute (dpm).
# The receptor concentration was determined in a prior saturation experiment where a fixed, arbitrary amount of membranes was incubated with a concentration range of radio-labeled tracer. This allows estimating the total number of specific binding sites per amount of protein (i.e., Bmax), typically between 1 and 5 pmol/mg.
# The concentration of the test compound required to result in half maximal inhibition of binding of the radio-labeled tracer (IC50) was estimated from a concentration-versus-dpm graph. The binding affinity (Ki) was calculated from the IC50 by applying the Cheng-Prussoff equation for single binding sites.
# T1 sequence (P35346 whole entry): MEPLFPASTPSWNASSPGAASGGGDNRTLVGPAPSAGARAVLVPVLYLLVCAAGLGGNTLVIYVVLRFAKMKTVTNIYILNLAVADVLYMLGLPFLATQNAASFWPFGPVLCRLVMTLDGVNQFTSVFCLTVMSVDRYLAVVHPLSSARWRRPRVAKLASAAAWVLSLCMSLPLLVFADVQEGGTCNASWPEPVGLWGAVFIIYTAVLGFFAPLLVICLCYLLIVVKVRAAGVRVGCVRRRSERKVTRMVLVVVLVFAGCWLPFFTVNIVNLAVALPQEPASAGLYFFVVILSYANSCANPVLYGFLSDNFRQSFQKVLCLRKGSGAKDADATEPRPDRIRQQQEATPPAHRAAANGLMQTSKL
row,Ki [nM],Structure (SMILES)
1,25,"CCOc1cc(CN2CCC(Nc3cnc(N)c(C)c3)CC2)cc(OCC)c1-c1ccc(F)cc1 [Example 79, N^5-[1-(2,6-diethoxy-4′-fluoro-biphenyl-4-ylmethyl)-piperidin-4-yl]-3-methyl-pyridine-2,5-diamine]"
2,62,"CCOc1cc(CN2CCC(Nc3cnc4ccccc4c3)CC2)ccc1OC(F)F [Example 99, [1-(4-difluoromethoxy-3-ethoxy-benzyl)-piperidin-4-yl]-quinolin-3-yl-amine]"

row,Structure (SMILES),Ki [nM]
1,"CCOc1cc(CN2CCC(Nc3ccnc(C)c3)CC2)ccc1OCC(C)C [Example 122, [1-(3-ethoxy-4-isobutoxy-benzyl)-piperidin-4-yl]-(2-methyl-pyridin-4-yl)-amine]",492
